Assay results published in publication PMC12720774, “Detergents alter the stability and lipid binding properties of the CD1d immunoreceptor” (Protein Science : A Publication of the Protein Society, 2025).
Where “and” joins values, the source holds several entries; their conditions need not be identical. Identical values can stand only once. Like-named read-outs stand apart in the source and are kept apart here.

Legend:
[1] = target: T1, AF647‐labeled hCD1d (Homo sapiens, UniProt P15813); experiment: Microscale thermophoresis (MST) binding assay
T1 construct: TEV protease cleavage site ENLYFQS (C); BirA biotinylation site (C); His7 (C); made in house; host or cells: TurboCHO cells (GenScript)
Source text: (§1) The experimental limitations of ITF, such as low instrument sensitivity, high sample consumption, signal overlap with some ligands, and low throughput (Fossum et al., [2023]), made it necessary to employ alternative, complementary assays to quantify detergent binding to hCD1d. […] MST measures the diffusion of fluorescent molecules in response to microscopic temperature gradients (Seidel et al., [2013]). When a protein forms a complex with a ligand, changes in hydrodynamic properties, charge, or solvation energy alter its thermophoretic behavior, allowing detection of binding events. To perform MST experiments, Alexa Fluor 647 (AF647) dye was covalently attached to the primary amines of hCD1d via standard N‐hydroxysuccinimide coupling chemistry (Anderson et al., [1964]). The concentration of AF647‐hCD1d was kept constant, and the change in MST signal was measured as a function of increasing detergent concentration (Figure S3). Like ITF, any lipid or detergent that destabilizes CD1 can also alter the MST signal since unfolding changes the protein's Stokes radius and its thermophoretic behavior. […] This is why we compare MST results with ITF and nanoDSF, as described below.
(§2) For MST, hCD1d was fluorescently labeled with AF647‐NHS Ester (Invitrogen #A20006). Briefly, a 10 mM stock of AF647‐NHS was prepared in anhydrous DMSO. Then, 100 μL of 50 μM hCD1d in 1X PBS pH 7.4 was mixed with 1 μL of 10 mM AF647‐NHS (1:2 molar ratio of protein: dye). The mixture was allowed to react for 1 h in the dark at 25°C. Unreacted dye was removed from the protein–dye conjugate by performing size exclusion chromatography in the dark with a Superdex 200 Increase 10/300 GL column at a flow rate of 0.5 mL/min in SEC buffer (100 mM NaCl, 20 mM sodium phosphate, pH 7.2). The degree of labeling was determined by a NanoDrop spectrophotometer at A647 nm (dye absorbance) and A280 nm (hCD1d absorbance). The degree of labeling was determined from the ratio of dye concentration to protein concentration. The degree of labeling was ~75%.
(§3) MST experiments were performed using a Monolith NT.115 instrument (NanoTemper Technologies) using Monolith standard capillaries and the red excitation laser setup. The following settings were applied for all MST experiments: excitation power: 30%–50%, MST power: medium, before MST time: 3 s, MST on time (IR laser): 20 seconds, and after MST time: 1 s. MST measurements were analyzed using the Monolith Affinity Analysis software v2.3 and exported for plotting in GraphPad Prism v10.1. Three replicates were performed, and data are presented as the mean ± standard deviation (n = 3).
(§4) MST measurements of 100 nM AF647‐hCD1d were acquired in the absence and presence of detergents in 1X PBS pH 7.4 at 25°C. Prior to data acquisition, hCD1d and detergent or lipid samples were incubated at 37°C overnight (~12 h) to simulate in vitro and in vivo loading conditions. […] For 18:1 LPC experiments: MST data of 100 nM AF647‐hCD1d were acquired in the absence and presence of 18:1 LPC in 1X PBS pH 7.4 at 25°C.

[2] = target: T2, AF647‐labeled hCD1d (Homo sapiens, UniProt P15813+P61769); experiment: Microscale thermophoresis (MST) binding assay
T2 construct: TEV protease cleavage site ENLYFQS (C); BirA biotinylation site (C); His7 (C); made in house; host or cells: TurboCHO cells (GenScript)
Source text: as §1, §2, §3, §4

[3] = approximate, cited from earlier work
[4] = Figure 5B, detergent binding to hCD1d, read-out: MST - Kd (uM) average
[5] = detergent with 100 nM AF647‐labeled hCD1d, 25°C, apparent, read-out: K D (MST)
[6] = 0.001 M detergent, 100 nM AF647‐hCD1d
[7] = weight/volume, ref Anatrace catalogue

T2 sequence (P61769+P15813 fused): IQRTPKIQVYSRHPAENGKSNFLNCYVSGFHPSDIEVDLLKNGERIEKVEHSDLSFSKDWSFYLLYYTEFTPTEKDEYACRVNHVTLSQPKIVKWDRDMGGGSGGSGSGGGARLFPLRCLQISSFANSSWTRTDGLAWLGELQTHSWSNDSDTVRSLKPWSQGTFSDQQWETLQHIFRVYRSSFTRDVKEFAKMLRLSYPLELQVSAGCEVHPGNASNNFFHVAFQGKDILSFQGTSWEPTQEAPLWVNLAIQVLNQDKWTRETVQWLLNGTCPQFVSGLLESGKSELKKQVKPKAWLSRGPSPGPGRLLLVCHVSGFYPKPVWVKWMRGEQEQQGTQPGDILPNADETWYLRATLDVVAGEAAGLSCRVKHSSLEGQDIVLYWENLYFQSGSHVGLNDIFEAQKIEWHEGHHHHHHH
T1 sequence (P15813 whole entry, looked up): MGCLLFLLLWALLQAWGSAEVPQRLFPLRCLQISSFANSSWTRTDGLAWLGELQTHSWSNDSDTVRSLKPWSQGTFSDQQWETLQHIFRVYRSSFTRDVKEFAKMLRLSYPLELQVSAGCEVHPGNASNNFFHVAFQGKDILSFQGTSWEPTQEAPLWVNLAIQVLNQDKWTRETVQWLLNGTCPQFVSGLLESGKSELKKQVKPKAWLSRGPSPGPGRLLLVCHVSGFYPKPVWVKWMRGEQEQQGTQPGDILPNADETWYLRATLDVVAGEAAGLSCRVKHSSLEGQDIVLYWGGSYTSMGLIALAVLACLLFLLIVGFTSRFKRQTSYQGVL

| Compound | Kd [1, 4] [µM] | Kd [1, 5] [µM] | Fnorm (rep 1-3) ([2]; 4.88281e-7 M detergent) | Fnorm (rep 1-3) ([2]; 9.76563e-7 M detergent) | Fnorm (rep 1-3) ([2]; 1.95313e-6 M detergent) | Fnorm (rep 1-3) ([2]; 3.90625e-6 M detergent) | Fnorm (rep 1-3) ([2]; 7.8125e-6 M detergent) | Fnorm (rep 1-3) ([2]; 1.5625e-5 M detergent) | Fnorm (rep 1-3) ([2]; 3.125e-5 M detergent) | Fnorm (rep 1-3) ([2]; 6.25e-5 M detergent) | Fnorm (rep 1-3) ([2]; 0.000125 M detergent) | Fnorm (rep 1-3) ([2]; 0.00025 M detergent) | Fnorm (rep 1-3) ([2]; 0.0005 M detergent) | Fnorm (rep 1-3) [2, 6] | CMC ([3]; ref Anatrace catalogue) | CMC [3, 7] [%] | other results |
| --- | --- | --- | --- | --- | --- | --- | --- | --- | --- | --- | --- | --- | --- | --- | --- | --- | --- |
| C[C@H](CCC(=O)O)[C@H]1CC[C@H]2[C@@H]3CC[C@@H]4C[C@H](O)CC[C@]4(C)[C@H]3C[C@H](O)[C@]12C [Deoxycholate, sodium deoxycholate] | 103 | > 10000 | 795.887 ‰ and 794.029 ‰ and 796.702 ‰ | 796.103 ‰ and 795.392 ‰ and 796.86 ‰ | 795.057 ‰ and 792.832 ‰ and 795.608 ‰ | 796.418 ‰ and 796.702 ‰ and 795.904 ‰ | 795.548 ‰ and 798.002 ‰ and 797.636 ‰ | 795.128 ‰ and 798.849 ‰ and 799.048 ‰ | 798.119 ‰ and 798.444 ‰ and 799.423 ‰ | 800.962 ‰ and 799.886 ‰ and 803.305 ‰ | 801.785 ‰ and 804.744 ‰ and 805.19 ‰ | 804.206 ‰ and 807.083 ‰ and 805.968 ‰ | 808.515 ‰ and 808.171 ‰ and 806.841 ‰ | 814.33 ‰ and 809.551 ‰ and 810.963 ‰ | – | – | binding to hCD1d by MST (in words) [2]: observable binding; Fnorm (rep 1-3) ([2]; 3.05176e-8 M detergent): 795.701 ‰ and 796.724 ‰ and 797.98 ‰; Fnorm (rep 1-3) ([2]; 6.10352e-8 M detergent): 794.625 ‰ and 796.029 ‰ and 797.315 ‰; Fnorm (rep 1-3) ([2]; 1.2207e-7 M detergent): 793.156 ‰ and 796.701 ‰ and 795.845 ‰; Fnorm (rep 1-3) ([2]; 2.44141e-7 M detergent): 795.335 ‰ and 795.616 ‰ and 795.028 ‰ |
| CCCCCCCCO[C@@H]1O[C@H](CO)[C@@H](O)[C@H](O)[C@H]1O [ODG, n‐octyl‐β‐D‐glucopyranoside] | 6580 | 6580 ± 186 | – | 842.328 ‰ and 845.864 ‰ and 848.262 ‰ | 843.26 ‰ and 846.856 ‰ and 850.006 ‰ | 843.026 ‰ and 843.822 ‰ and 848.605 ‰ | 843.431 ‰ and 845.217 ‰ and 850.155 ‰ | 843.398 ‰ and 846.496 ‰ and 848.167 ‰ | 843.251 ‰ and 846.684 ‰ and 848.174 ‰ | 844.533 ‰ and 847.002 ‰ and 847.612 ‰ | 844.648 ‰ and 847.89 ‰ and 849.866 ‰ | 846.571 ‰ and 844.204 ‰ and 849.145 ‰ | 846.14 ‰ and 848.026 ‰ and 848.57 ‰ | 845.727 ‰ and 847.773 ‰ and 849.553 ‰ | 18,000 μM | 0.53 | Fnorm (rep 1-3) ([2]; 0.002 M detergent): 847.311 ‰ and 851.671 ‰ and 850.904 ‰; Fnorm (rep 1-3) ([2]; 0.004 M detergent): 852.082 ‰ and 853.968 ‰ and 856.97 ‰; Fnorm (rep 1-3) ([2]; 0.008 M detergent): 864.475 ‰ and 866.313 ‰ and 870.655 ‰; Fnorm (rep 1-3) ([2]; 0.032 M detergent): 877.078 ‰ and 878.262 ‰ and 882.232 ‰ |
| CCCCCCCCCCCCCCCC[N+](C)(C)C [CTAB, hexadecyltrimethylammonium bromide] | – | – | 812.075 ‰ and 810.216 ‰ and 807.19 ‰ | 814.18 ‰ and 810.332 ‰ and 807.136 ‰ | 814.445 ‰ and 813.166 ‰ and 810.178 ‰ | 815.986 ‰ and 818.175 ‰ and 815.532 ‰ | 824.731 ‰ and 823.149 ‰ and 822.329 ‰ | 835 ‰ and 828.362 ‰ and 831.779 ‰ | 849.376 ‰ and 847.531 ‰ and 847.477 ‰ | 858.509 ‰ and 854.12 ‰ and 851.197 ‰ | 844.143 ‰ and 841.907 ‰ and 839.82 ‰ | 844.455 ‰ and 843.492 ‰ and 841.952 ‰ | 845.737 ‰ and 843.294 ‰ and 845.557 ‰ | 845.54 ‰ and 843.477 ‰ and 843.19 ‰ | – | – | Kd ([1]; K D (MST), detergent with 100 nM AF647‐labeled hCD1d, 25°C, apparent): 10.9 ± 1.2 µM; Kd ([1]; MST - Kd (uM) average, Figure 5B, detergent binding to hCD1d): 10.9 µM; CMC ([3]; ref Sigma Aldrich catalogue): 920 µM; CMC ([3]; weight/volume, ref Sigma Aldrich catalogue): 0.033% |
| Tween 80 | – | – | – | – | – | – | – | – | – | – | – | – | – | – | 12 µM | 0.0016 | Fnorm (rep 1-3) ([2]; 6.10352e-9 M detergent): 805.067 ‰ and 809.857 ‰ and 804.507 ‰; Fnorm (rep 1-3) ([2]; 1.2207e-8 M detergent): 806.458 ‰ and 809.351 ‰ and 805.026 ‰; Fnorm (rep 1-3) ([2]; 2.44141e-8 M detergent): 805.306 ‰ and 809.655 ‰ and 805.09 ‰; Fnorm (rep 1-3) ([2]; 4.88281e-8 M detergent): 807.116 ‰ and 806.609 ‰ and 806.1 ‰; Fnorm (rep 1-3) ([2]; 9.76563e-8 M detergent): 804.905 ‰ and 807.619 ‰ and 802.759 ‰; Fnorm (rep 1-3) ([2]; 1.95313e-7 M detergent): 804.684 ‰ and 807.405 ‰ and 803.094 ‰; Fnorm (rep 1-3) ([2]; 3.90625e-7 M detergent): 805.673 ‰ and 808.266 ‰ and 805.393 ‰; Fnorm (rep 1-3) ([2]; 7.8125e-7 M detergent): 808.872 ‰ and 807.822 ‰ and 807.967 ‰; Fnorm (rep 1-3) ([2]; 1.5625e-6 M detergent): 807.024 ‰ and 810.305 ‰ and 805.453 ‰; Fnorm (rep 1-3) ([2]; 3.125e-6 M detergent): 820.597 ‰ and 825.116 ‰ and 819.282 ‰; Fnorm (rep 1-3) ([2]; 6.25e-6 M detergent): 847.228 ‰ and 846.294 ‰ and 841.909 ‰; Fnorm (rep 1-3) ([2]; 1.25e-5 M detergent): 846.069 ‰ and 855.71 ‰ and 840.031 ‰; Fnorm (rep 1-3) ([2]; 2.5e-5 M detergent): 844.894 ‰ and 848.667 ‰ and 837.578 ‰; Fnorm (rep 1-3) ([2]; 5e-5 M detergent): 846.685 ‰ and 845.769 ‰ and 838.247 ‰; Fnorm (rep 1-3) ([2]; 0.0001 M detergent): 846.112 ‰ and 846.019 ‰ and 837.99 ‰; Fnorm (rep 1-3) ([2]; 0.0002 M detergent): 847.908 ‰ and 844.822 ‰ and 840.824 ‰; Kd [2, 4]: 3.24 µM; Kd [2, 5]: 3.2 ± 0.1 µM |
